Measured values taken from patent US6472418B1, “Non-peptide NK1 receptors antagonists” (Warner-Lambert Company, priority 1998, dated 2002).

biological target: T1, Human NK1 Receptor (Homo sapiens, UniProt P25103); assay: In Vitro Human NK1 Receptor Binding Assay ([125I]Bolton-Hunter substance P displacement, IM9 cells); settings: human NK1 receptor, IM9 cells, [125I]Bolton-Hunter substance P; read-out: IC50 (nM) hNK1
T1 construct: endogenous in cells; host or cells: Human lymphoma IM9 cells (whole cells)
In short: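 Test compounds competed with 0.05-0.1 nM [125I]Bolton-Hunter substance P for binding to intact IM9 cells over 50 min at 21° C, pH 7.4 buffer with MnCl2 and peptidase inhibitors. […] [Sar9, Met(O2)11] substance P gave non-specific binding. Bound counts were measured after filtration and fitted iteratively.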

T1 sequence (P25103 whole entry): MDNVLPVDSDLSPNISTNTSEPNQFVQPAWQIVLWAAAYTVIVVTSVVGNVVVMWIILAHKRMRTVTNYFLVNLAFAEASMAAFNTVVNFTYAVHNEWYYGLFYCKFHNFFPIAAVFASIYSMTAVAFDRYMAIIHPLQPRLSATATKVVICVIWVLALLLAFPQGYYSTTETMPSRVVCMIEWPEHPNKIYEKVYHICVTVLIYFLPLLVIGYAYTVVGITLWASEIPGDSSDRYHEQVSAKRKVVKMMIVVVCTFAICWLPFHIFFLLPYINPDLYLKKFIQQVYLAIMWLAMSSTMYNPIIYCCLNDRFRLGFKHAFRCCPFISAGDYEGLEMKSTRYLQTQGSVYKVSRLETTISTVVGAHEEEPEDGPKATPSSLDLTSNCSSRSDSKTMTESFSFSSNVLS

| IC50 | SMILES |
| --- | --- |
| 1140 nM | CC(Cc1c[nH]c2ccccc12)(NCc1cc2ccccc2o1)C(=O)NCC1(c2ccccc2)CC1 (stereo not shown) [compound 110, 2-[(Benzofuran-2-ylmethyl)-amino]-3-(1H-indol-3-yl)-2-methyl-N-(1-phenyl-cyclopropylmethyl)-propionamide] |
| > 10000 nM | CC(Cc1c[nH]c2ccccc12)(NCc1cc2ccccc2o1)C(=O)NC1CCc2ccccc2C1 (stereo not shown) [compound 111, 2-[(Benzofuran-2-ylmethyl)-amino]-3-(1H-indol-3-yl)-2-methyl-N-(1,2,3,4-tetrahydro-naphthalen-2-yl)-propionamide] |
| 12 nM | CC(Cc1c[nH]c2ccccc12)(NCc1cc2ccccc2o1)C(=O)NCc1cccc([N+](=O)[O-])c1 (stereo not shown) [compound 112, 2-[(Benzofuran-2-ylmethyl)-amino]-3-(1H-indol-3-yl)-2-methyl-N-(3-nitro-benzyl)-propionamide] |
| 463 nM | CC(Cc1c[nH]c2ccccc12)(NCc1cc2ccccc2o1)C(=O)NC1Cc2ccccc2C1 (stereo not shown) [compound 113, 2-[(Benzofuran-2-ylmethyl)-amino]-N-indan-2-yl-3-(1H-indol-3-yl)-2-methyl-propionamide] |
| 128 nM | CCC(NC(=O)C(C)(Cc1c[nH]c2ccccc12)NCc1cc2ccccc2o1)c1cccs1 (stereo not shown) [compound 114, 2-[(Benzofuran-2-ylmethyl)-amino]-3-(1H-indol-3-yl)-2-methyl-N-(1-thiophen-2-yl-propyl)-propionamide] |
| 2650 nM | CC(Cc1n[nH]c2ccccc12)NC(=O)C(C)(Cc1c[nH]c2ccccc12)NCc1cc2ccccc2o1 (stereo not shown) [compound 120, 2-[(Benzofuran-2-ylmethyl)-amino]-N-[2-(1H-indazol-3-yl)-1-methyl-ethyl]-3-(1H-indol-3-yl)-2-methyl-propionamide] |
| 654 nM | CC(Cc1c[nH]c2ccccc12)(NCc1cc2ccccc2o1)C(=O)NCCn1cccc1 (stereo not shown) [compound 121, 2-[(Benzofuran-2-ylmethyl)-amino]-3-(1H-indol-3-yl)-2-methyl-N-(2-pyrrol-1-yl-ethyl)-propionamide] |
| 191 nM | CC(Cc1c[nH]c2ccccc12)(NCc1cc2ccccc2o1)C(=O)NCc1ccco1 (stereo not shown) [compound 127, 2-[(Benzofuran-2-ylmethyl)-amino]-N-furan-2-ylmethyl-3-(1H-indol-3-yl)-2-methyl-propionamide] |
| 43 nM | Cc1cccc(CNC(=O)C(C)(Cc2c[nH]c3ccccc23)NCc2cc3ccccc3o2)c1 (stereo not shown) [compound 129, 2-[(Benzofuran-2-ylmethyl)-amino]-3-(1H-indol-3-yl)-2-methyl-N-(3-methyl-benzyl)-propionamide] |
| 163 nM | CC(Cc1c[nH]c2ccccc12)(NCc1cc2ccccc2o1)C(=O)NC1CCc2ccccc21 (stereo not shown) [compound 130, 2-[(Benzofuran-2-ylmethyl)-amino]-N-indan-1-yl-3-(1H-indol-3-yl)-2-methyl-propionamide] |
| 4480 nM | CC(Cc1c[nH]c2ccccc12)(NCc1cc2ccccc2o1)C(=O)NCC(C)(C)c1ccccc1 (stereo not shown) [compound 133, 2-[(Benzofuran-2-ylmethyl)-amino]-3-(1H-indol-3-yl)-2-methyl-N-(2-methyl-2-phenyl-propyl)-propionamide] |

Continued, compound first:

| SMILES | IC50 |
| --- | --- |
| CC(Cc1c[nH]c2ccccc12)(NCc1cc2ccccc2o1)C(=O)NCCc1ccco1 (stereo not shown) [compound 115, 2-[(Benzofuran-2-ylmethyl)-amino]-N-(2-furan-2-yl-ethyl)-3-(1H-indol-3-yl)-2-methyl-propionamide] | 154 nM |
| CC(Cc1c[nH]c2ccccc12)(NCc1cc2ccccc2o1)C(=O)NCC1(O)CCCCC1 (stereo not shown) [compound 116, 2-[(Benzofuran-2-ylmethyl)-amino]-N-(1-hydroxy-cyclohexylmethyl)-3-(1H-indol-3-yl)-2-methyl-propionamide] | > 10000 nM |
| CC(Cc1c[nH]c2ccccc12)(NCc1cc2ccccc2o1)C(=O)NCC1(c2ccco2)CCC1 (stereo not shown) [compound 117, 2-[(Benzofuran-2-ylmethyl)-amino]-N-(1-furan-2-yl-cyclobutylmethyl)-3-(1H-indol-3-yl)-2-methyl-propionamide] | > 10000 nM |
| CC(NC(=O)C(C)(Cc1c[nH]c2ccccc12)NCc1cc2ccccc2o1)c1ccc(Cl)s1 (stereo not shown) [compound 118, 2-[(Benzofuran-2-ylmethyl)-amino]-N-[1-(5-chloro-thiophen-2-yl)-ethyl]-3-(1H-indol-3-yl)-2-methyl-propionamide] | 45 nM |
| CC(Cc1c[nH]c2ccccc12)(NCc1cc2ccccc2o1)C(=O)NCc1ccc([N+](=O)[O-])cc1 (stereo not shown) [compound 119, 2-[(Benzofuran-2-ylmethyl)-amino]-3-(1H-indol-3-yl)-2-methyl-N-(4-nitro-benzyl)-propionamide] | 89 nM |
| CC(NC(=O)C(C)(Cc1c[nH]c2ccccc12)NCc1cc2ccccc2o1)c1cc(Cl)sc1Cl (stereo not shown) [compound 122, 2-[(Benzofuran-2-ylmethyl)-amino]-N-[1-(2,5-dichloro-thiophen-3-yl)-ethyl]-3-(1H-indol-3-yl)-2-methyl-propionamide] | 442 nM |
| CC(Cc1c[nH]c2ccccc12)(NCc1cc2ccccc2o1)C(=O)NCCN1CCC2CCCCC21 (stereo not shown) [compound 123, 2-[(Benzofuran-2-ylmethyl)-amino]-3-(1H-indol-3-yl)-2-methyl-N-[2-(octahydro-indol-1-yl)-ethyl]-propionamide] | > 10000 nM |
| CC(NC(=O)C(C)(Cc1c[nH]c2ccccc12)NCc1cc2ccccc2o1)c1ccc([N+](=O)[O-])cc1 (stereo not shown) [compound 124, 2-[(Benzofuran-2-ylmethyl)-amino]-3-(1H-indol-3-yl)-2-methyl-N-[1-(4-nitro-phenyl)-ethyl]-propionamide] | 92 nM |
| CC(Cc1c[nH]c2ccccc12)(NCc1cc2ccccc2o1)C(=O)NCCN1CCCCC1 (stereo not shown) [compound 125, 2-[(Benzofuran-2-ylmethyl)-amino]-3-(1H-indol-3-yl)-2-methyl-N-(2-piperidin-1-yl-ethyl)-propionamide] | > 10000 nM |
| CC1(CNC(=O)C(C)(Cc2c[nH]c3ccccc23)NCc2cc3ccccc3o2)OCCO1 (stereo not shown) [compound 126, 2-[(Benzofuran-2-ylmethyl)-amino]-3-(1H-indol-3-yl)-2-methyl-N-(2-methyl-[1,3]dioxolan-2-ylmethyl)-propionamide] | 6790 nM |
| CC(Cc1c[nH]c2ccccc12)(NCc1cc2ccccc2o1)C(=O)NCCN1CCOCC1 (stereo not shown) [compound 128, 2-[(Benzofuran-2-ylmethyl)-amino]-3-(1H-indol-3-yl)-2-methyl-N-(2-morpholin-4-yl-ethyl)-propionamide] | > 10000 nM |
| CC(Cc1c[nH]c2ccccc12)(NCc1cc2ccccc2o1)C(=O)NCC(C)(C)N1CCCCC1 (stereo not shown) [compound 131, 2-[(Benzofuran-2-ylmethyl)-amino]-3-(1H-indol-3-yl)-2-methyl-N-(2-methyl-2-piperidin-1-yl-propyl)-propionamide] | > 10000 nM |
| CC(Cc1c[nH]c2ccccc12)(NCc1cc2ccccc2o1)C(=O)NCCN1CCNC1=S (stereo not shown) [compound 132, 2-[(Benzofuran-2-ylmethyl)-amino]-3-(1H-indol-3-yl)-2-methyl-N-[2-(2-thioxo-imidazolidin-1-yl)-ethyl]-propionamide] | 6030 nM |
| CC(Cc1c[nH]c2ccccc12)(NCc1cc2ccccc2o1)C(=O)NCCCn1ccnc1 (stereo not shown) [compound 134, 2-[(Benzofuran-2-ylmethyl)-amino]-N-(3-imidazol-1-yl-propyl)-3-(1H-indol-3-yl)-2-methyl-propionamide] | 5370 nM |
